# Assay results as given in patent US20220064214A1, “NOVEL PEPTIDES AND USES THEREOF” (CENNA BIOSCIENCES INC., priority 2019, published 2022).
# “And” between values parts separate entries of the source, which are not always exact repeats. Equal entries are not always repeated. Marks after values point to notes of the source that are not given here. Ends that are not written are not given here.
# How the values were obtained:
# Aβ = experiment: Reduction of Aβ in retinal cells differentiated from iPSC derived from Alzheimer's disease patients; type: cell-based
# Excerpt: The accumulation of Aβ in the retina was studied in this example. Retinal cells were differentiated from induced pluripotent stem (iPSC) cells derived from Alzheimer's disease patients.
# [1] = Pharmacokinetics study in rats, CSF; type: in vivo; parameters: CSF concentration, Mean IV / CSF concentration, Mean SC: unit not given here; conditions: rat; for CSF concentration, Mean IV: 10 mg/kg IV; for CSF concentration, Mean SC: 10 mg/kg SC
# Procedure: (§1) An in-vivo study was carried out in rats to determine the pharmacokinetics (PK) of peptides P8, 8M1D and 8M2D in plasma and CSF. Each peptide was assessed through two dosage routes, intravenous (IV) and subcutaneous (SC). Three rats were assigned to each dose group with each peptide. Total of twelve rats per peptide were used.
# CSF collection was performed by first anesthetizing animals at specified time points (see Table 5) with a mixture of 80 mg/kg ketamine and 8 mg/kg xylazine. The depth of anesthesia was monitored by toe pinches. CSF was collected via the cisterna magna (˜0.05 mL), and it was split into equal aliquots, frozen, and stored at −60 to −80° C.
# Aβ40 = experiment: Efficacy in reducing Aβ40 in rat plasma (ELISA); type: in vivo; conditions: 10 mg/kg SC; for reduction in Aβ40: rat plasma; for Percent Decrease in Aβ 40 in Rat Plasma: mean of 3 rats, negative = decrease
# Procedure: (§2) Blood was collected through jugular vein cannulas, and the samples were collected into tubes with K2EDTA. After centrifuging at a temperature of 2 to 8° C. at 4,000×g for 5 minutes, the resulting plasma was split into equal aliquots, frozen, and stored at −60 to −80° C. One aliquot was for PK analysis and the other was for Aβ analysis (see Example 4).
# Rats (n=3 per peptide) were administered with P8, 8M1D, or 8M2D (10 mg/kg) subcutaneously, and plasma were collected at 0, 6, 12, and 24 h after dosing and Aβ40 analysis was carried out by ELISA (Invitrogen).
# [2] = Pharmacokinetics study in rats, plasma; type: in vivo; conditions: rat; for plasma concentration: individual rats
# Procedure: as §1, §2
# [3] = Delivery to brain in transgenic mice (brain concentrations); type: in vivo; conditions: SC administration
# Procedure: Critical to the development of any therapeutic for diseases like AD is the requirement that it can be delivered to the brain. Delivery to brain and efficacy of P8 and 8M2D in reducing Aß was analyzed in the transgenic mice described in Section 6.3 above. […]
substance,measurement,setting,value
"DEEEDEEL-OH [P8, DEEEDEEL, reference compound]",production of Aβ in retinal cells in the presence of the peptide (in words),Aβ,reduced
same,time after dosing at which detectable in CSF,[1]; 10 mg/kg IV and SC,≤ 2 h
same,"CSF concentration, Mean IV",[1]; 0 hr,0
same,"CSF concentration, Mean IV",[1]; 0.5 hr,42.4
same,"CSF concentration, Mean IV",[1]; 1 hr,14.2
same,"CSF concentration, Mean IV",[1]; 2 hr,4.89
same,"CSF concentration, Mean IV",[1]; 4 hr,0
same,"CSF concentration, Mean IV",[1]; 8 hr,0
same,"CSF concentration, Mean IV",[1]; 12 hr,0
same,"CSF concentration, Mean IV",[1]; 24 hr,0
same,"CSF concentration, Mean SC",[1]; 0 hr,0
same,"CSF concentration, Mean SC",[1]; 0.5 hr,79.4
same,"CSF concentration, Mean SC",[1]; 1 hr,19.3
same,"CSF concentration, Mean SC",[1]; 2 hr,23.3
same,"CSF concentration, Mean SC",[1]; 4 hr,0
same,"CSF concentration, Mean SC",[1]; 8 hr,0
same,"CSF concentration, Mean SC",[1]; 12 hr,0
same,"CSF concentration, Mean SC",[1]; 24 hr,0
same,reduction in Aβ40,Aβ40; 12 hr post dosing,about 22%
same,reduction in Aβ40,Aβ40; 24 h post dosing,about 13%
same,Percent Decrease in Aβ 40 in Rat Plasma,Aβ40; 0 h,0.00%
same,Percent Decrease in Aβ 40 in Rat Plasma,Aβ40; 6 h,−18.13%
same,Percent Decrease in Aβ 40 in Rat Plasma,Aβ40; 12 h,−22.70%
same,Percent Decrease in Aβ 40 in Rat Plasma,Aβ40; 24 h,−13.22%
same,time after dosing at which detectable in plasma,[2]; 10 mg/kg IV and SC,≤ 2 h
same,plasma concentration,"[2]; 10 mg/kg IV, 0 hr (pre-dose)",BQL
same,plasma concentration,"[2]; 10 mg/kg IV, 0.167 hr, 10 mg/kg","9,770 and 12,800 ^a and 11,800 ^a"
same,plasma concentration,"[2]; 10 mg/kg IV, 0.5 hr, 10 mg/kg, in ng/mL (unit assumed)","2,340 and 2,080 and 2,710"
same,plasma concentration,"[2]; 10 mg/kg IV, 1 hr, 10 mg/kg, in ng/mL (unit assumed)",257 and 219 and 189
same,plasma concentration,"[2]; 10 mg/kg IV, 2 hr, 10 mg/kg, in ng/mL (unit assumed)",26.3 and 22.7 and 18.9
same,plasma concentration,"[2]; 10 mg/kg IV, 4 hr, 10 mg/kg",3.23 ^b and 3.18 ^b and 2.89 ^b
same,plasma concentration,"[2]; 10 mg/kg IV, 6 hr, 10 mg/kg",1.07 ^b and 0.794 ^b
same,plasma concentration,"[2]; 10 mg/kg IV, 8 hr",BQL
same,plasma concentration,"[2]; 10 mg/kg IV, 12 hr",BQL
same,plasma concentration,"[2]; 10 mg/kg IV, 24 hr",BQL
same,plasma concentration,"[2]; 10 mg/kg SC, 0 hr (pre-dose)",BQL
same,plasma concentration,"[2]; 10 mg/kg SC, 0.167 hr, 10 mg/kg","5,610 and 14,400 ^a and 11,900 ^a"
same,plasma concentration,"[2]; 10 mg/kg SC, 0.5 hr, 10 mg/kg, in ng/mL (unit assumed)","3,030 and 7,010 and 7,250"
same,plasma concentration,"[2]; 10 mg/kg SC, 1 hr, 10 mg/kg, in ng/mL (unit assumed)","670 and 1,300 and 1,970"
same,plasma concentration,"[2]; 10 mg/kg SC, 2 hr, 10 mg/kg, in ng/mL (unit assumed)",105 and 191 and 245
same,plasma concentration,"[2]; 10 mg/kg SC, 4 hr, 10 mg/kg",5.44 ^b and 9.41 ^b and 20.7
same,plasma concentration,"[2]; 10 mg/kg SC, 6 hr, 10 mg/kg",1.18 ^b and 4.35 ^b and 9.33 ^b
same,plasma concentration,"[2]; 10 mg/kg SC, 8 hr, 10 mg/kg",BQL and 1.32 ^b and 1.51 ^b
same,plasma concentration,"[2]; 10 mg/kg SC, 12 hr, 10 mg/kg",BQL (2×) and 0.900 ^b
same,plasma concentration,"[2]; 10 mg/kg SC, 24 hr",BQL
same,delivery to the APPTg mouse brain (in words),[3],in sufficient amounts to reduce Aß in the brain
